This note sets out measurements from ChEMBL document CHEMBL4052689, “Discovery and optimization of 3-(4-aryl/heteroarylsulfonyl)piperazin-1-yl)-6-(piperidin-1-yl)pyridazines as novel, CNS penetrant pan-muscarinic antagonists” (Bioorg Med Chem Lett, 2017).

The structures appear in SMILES notation.

The target of data set [1] is T1, Muscarinic acetylcholine receptor M4 (Homo sapiens, UniProt P08173).
T1 sequence (P08173 whole entry): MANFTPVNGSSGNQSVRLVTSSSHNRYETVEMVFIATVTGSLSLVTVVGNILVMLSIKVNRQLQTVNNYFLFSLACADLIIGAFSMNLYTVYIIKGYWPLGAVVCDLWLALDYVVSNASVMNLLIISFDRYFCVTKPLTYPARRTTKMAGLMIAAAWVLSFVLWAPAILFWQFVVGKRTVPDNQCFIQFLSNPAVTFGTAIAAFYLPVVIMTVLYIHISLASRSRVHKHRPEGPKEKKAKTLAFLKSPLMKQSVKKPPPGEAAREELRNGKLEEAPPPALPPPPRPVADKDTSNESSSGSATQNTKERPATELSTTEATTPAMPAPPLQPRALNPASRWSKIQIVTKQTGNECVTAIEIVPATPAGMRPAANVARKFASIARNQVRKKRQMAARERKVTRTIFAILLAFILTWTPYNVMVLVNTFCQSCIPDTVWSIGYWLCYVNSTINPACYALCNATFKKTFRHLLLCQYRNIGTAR
The data set can be described thus: Antagonist activity at human recombinant muscarinic M4 receptor expressed in CHO cells co-transfected with Gqi5 in presence of EC80 acetylcholine by calcium mobilization assay. It counts as functional, cell-based. In general terms: A change in cytosolic calcium serves as a functional read-out for many receptors and channels.

Data set [2] addresses T2, Muscarinic acetylcholine receptor M4 (Homo sapiens) (UniProt P08173).
T2 sequence (whole entry): T1 sequence (P08173 whole entry)
The data set can be described thus: Antagonist activity at human recombinant muscarinic M4 receptor expressed in CHO cells co-transfected with Gqi5 assessed as acetylcholine-induced response in presence of EC80 acetylcholine by calcium mobilization assay relative to untreated control. Type of data set: functional, cell-based. Also noted: scale not given: the % may be the effect or the level left.

The target in data set [3] is T1, Muscarinic acetylcholine receptor M4. The data set can be described thus: Antagonist activity at human muscarinic M4 receptor.
For data set [4], the system named is Plasma. The data set can be described thus: Protein binding in human plasma. It counts as ADME, cell-free.
The test system of data set [5] is Plasma. The data set can be described thus: Protein binding in rat plasma. It counts as ADME, cell-free.

As for `C[C@H]1CCCCN1c1cnc(N2CCN(S(=O)(=O)c3ccc4c(c3)OCO4)CC2)cn1`, the IC50 in data set [1] (read-out: IC50) is greater than 10000 nM.
`CC1CCCCN1c1ccc(N2CCN(S(=O)(=O)c3ccccc3Cl)CC2)nn1` (racemic): in data set [2], the Activity amounted to 9.2%. For the same compound, the IC50 in data set [1] (read-out: IC50) worked out at 530 nM; in data set [3], 1000 nM.
Take `C[C@H]1CCCCN1c1ccc(N2CCN(S(=O)(=O)c3ccc4c(c3)OCO4)CC2)cc1`: the IC50 in data set [1] (read-out: IC50) came to 1330 nM.
As for `COc1ccc(S(=O)(=O)N2CCN(c3ccc(N4CCCC[C@@H]4C)nn3)CC2)cc1OC`, the Activity in data set [2] was found to be 46%. Also, the IC50 was 2800 nM in data set [1] (read-out: IC50) and 2630 nM in data set [1] (read-out: pIC50 (converted)). Besides, the PPB result with Plasma [4] and in the data set with Plasma [5] was “Active” throughout.
Regarding `Cc1noc(C)c1S(=O)(=O)N1CCN(c2ccc(N3CCCC[C@@H]3C)nn2)CC1`, the Activity in data set [2] turned out to be 6%. Besides, the IC50 in data set [1] (read-out: IC50) worked out at 90 nM. Moreover, the PPB entry in the data set with Plasma [4] and in the data set on Plasma [5] was “Active” throughout.
Take `O=S(=O)(c1ccc2c(c1)OCO2)N1CCN(c2ccc(N3CCCCCC3)nn2)CC1`: the Activity in data set [2] amounted to 20%. For the same compound, the IC50 in data set [1] (read-out: IC50) worked out at 290 nM.
Consider `C[C@H]1CCCCN1c1ccc(N2CCN(S(=O)(=O)c3nccn3C)CC2)nn1`, for which the Activity in data set [2] worked out at 8%. Besides, the IC50 in data set [1] (read-out: IC50) amounted to 1600 nM. The PPB result with Plasma [4] and in the data set on Plasma [5] was “Active” each time.
In the case of `C[C@H]1CCCCN1c1ccc(N2CCN(S(=O)(=O)C3CCCCC3)CC2)nn1`, in data set [2], the Activity was 51%. The IC50 in data set [1] (read-out: IC50) was 4020 nM. Moreover, the PPB result in the data set with Plasma [4] and in the data set with Plasma [5] was “Active” throughout.
As for `C[C@H]1CCCCN1c1ccc(N2CCN(S(=O)(=O)c3ccccc3)CC2)nn1`, in data set [2], the Activity was 8%. Also, the IC50 in data set [1] (read-out: IC50) was 2570 nM. Moreover, the PPB entry in the data set on Plasma [4] and with Plasma [5] was “Active” throughout.
As to `C[C@H]1CCCCN1c1ccc(N2CCN(S(=O)(=O)c3ccc4c(c3)OCO4)CC2)cn1`, in data set [1] (read-out: IC50), the IC50 is greater than 10000 nM.
`Cc1noc(C)c1S(=O)(=O)N1CCN(c2ccc(N3CCOC[C@@H]3C)nn2)CC1`: the Activity in data set [2] turned out to be 66%. In addition, the IC50 in data set [1] (read-out: IC50) is greater than 10000 nM.
On to `Cc1noc(C)c1S(=O)(=O)N1CCN(c2ccc(N3CCCCCC3)nn2)CC1`, for which the Activity in data set [2] came out at 8%. The values for the IC50 in data set [1] (read-out: IC50) and in data set [1] (read-out: pIC50 (converted)) were 430 nM and 407 nM, respectively.
On to `C[C@H]1CCCCN1c1ccc(N2CCN(S(=O)(=O)c3ccc(Cl)cc3)CC2)nn1`, for which the Activity in data set [2] came out at 30%. Further, the IC50 in data set [1] (read-out: IC50) is 2340 nM; in data set [1] (read-out: pIC50 (converted)), 2290 nM. The PPB entry in the data set with Plasma [4] and with Plasma [5] was “Active” in each case.
For the compound `C[C@H]1CCCN1c1ccc(N2CCN(S(=O)(=O)c3ccc4c(c3)OCO4)CC2)nn1`, the Activity in data set [2] came out at 14%. For the same compound, the IC50 in data set [1] (read-out: IC50) is 2730 nM; in data set [1] (read-out: pIC50 (converted)), 2570 nM.
`O=S(=O)(c1ccc2c(c1)OCO2)N1CCN(c2ccc(N3CCCCC3)nn2)CC1`: the Activity in data set [2] amounted to 55%. Besides, the IC50 in data set [1] (read-out: IC50) was 730 nM; in data set [1] (read-out: pIC50 (converted)), 661 nM.
With `C[C@H]1CCCN1c1ccc(N2CCN(S(=O)(=O)c3ccccc3Cl)CC2)nn1`, in data set [2], the Activity stood at 9%. Also, the IC50 in data set [1] (read-out: IC50) worked out at 2900 nM.
Consider `C[C@H]1COCCN1c1ccc(N2CCN(S(=O)(=O)c3ccccc3Cl)CC2)nn1`, for which the Activity in data set [2] turned out to be 56%. The IC50 in data set [1] (read-out: IC50) was greater than 10000 nM.
For `CC1(C)CCCN(c2ccc(N3CCN(S(=O)(=O)c4ccc5c(c4)OCO5)CC3)nn2)C1`, the Activity in data set [2] amounted to 14%. Further, the IC50 in data set [1] (read-out: IC50) was 470 nM; in data set [1] (read-out: pIC50 (converted)) it was 457 nM.
Consider `COc1ccccc1S(=O)(=O)N1CCN(c2ccc(N3CCCC[C@@H]3C)nn2)CC1`, for which the Activity in data set [2] worked out at 11%. Besides, the IC50 in data set [1] (read-out: IC50) amounted to 2380 nM. The PPB result in the data set on Plasma [4] and with Plasma [5] was “Active” in each case.
Consider `C[C@@H]1CCCCN1c1ccc(N2CCN(S(=O)(=O)c3ccccc3Cl)CC2)nn1`, for which, in data set [2], the Activity was determined as 12%. Further, the IC50 was 6080 nM in data set [1] (read-out: IC50) and 5750 nM in data set [1] (read-out: pIC50 (converted)).
Take `C[C@H]1COCCN1c1ccc(N2CCN(S(=O)(=O)c3ccc4c(c3)OCO4)CC2)nn1`: the Activity in data set [2] is 63%. Also, in data set [1] (read-out: IC50), the IC50 is greater than 10000 nM.
`Cc1noc(C)c1S(=O)(=O)N1CCN(c2ccc(N3CCC[C@@H]3C)nn2)CC1`: the Activity in data set [2] worked out at 10%. Moreover, in data set [1] (read-out: IC50), the IC50 came out at 3310 nM.
The matching figures for `O=C1CCCCN1c1ccc(N2CCN(S(=O)(=O)c3ccccc3Cl)CC2)nn1`: 51% and greater than 10000 nM.
With `C[C@H]1CCCCN1c1ccc(N2CCN(S(=O)(=O)c3cccc(Cl)c3)CC2)nn1`, the Activity in data set [2] is 22%. The IC50 in data set [1] (read-out: IC50) was 760 nM; in data set [1] (read-out: pIC50 (converted)), 708 nM. For the same compound, the PPB entry with Plasma [4] and with Plasma [5] was “Active” throughout.
As for `CC1(C)CCCN(c2ccc(N3CCN(S(=O)(=O)c4ccccc4Cl)CC3)nn2)C1`, the Activity in data set [2] was 5%. Also, the IC50 in data set [1] (read-out: IC50) stood at 940 nM.
On to `C[C@H]1CCCCN1c1ccc(N2CCN(S(=O)(=O)c3ccccc3C(F)(F)F)CC2)nn1`, for which, in data set [2], the Activity turned out to be 4%. The IC50 in data set [1] (read-out: IC50) came to 520 nM. Besides, the PPB entry in the data set with Plasma [4] and in the data set with Plasma [5] was “Active” throughout.
`C[C@H]1CCCCN1c1ccc(N2CCN(S(=O)(=O)c3ccc4ncccc4c3)CC2)nn1`: in data set [2], the Activity came out at 7%. Further, the IC50 is 1170 nM in data set [1] (read-out: IC50) and 1120 nM in data set [1] (read-out: pIC50 (converted)). Besides, the PPB result in the data set with Plasma [4] and in the data set on Plasma [5] was “Active” in each case.
For the compound `O=S(=O)(c1ccccc1Cl)N1CCN(c2ccc(N3CCCCCC3)nn2)CC1`, the Activity in data set [2] was determined as 6%. The IC50 in data set [1] (read-out: IC50) was 1270 nM.
In the case of `C[C@H]1CCCCN1c1ccc(N2CCN(S(=O)(=O)c3ccc4c(c3)OCO4)CC2)nn1`, the Activity in data set [2] is 9%. In data set [1] (read-out: IC50), the IC50 was 200 nM. The PPB entry in the data set on Plasma [4] and in the data set with Plasma [5] was “Active” each time.
Take `C[C@H]1CCCCN1c1ccc(N2CCN(S(=O)(=O)c3ccc4c(c3)OCO4)CC2)nc1`: in data set [1] (read-out: IC50), the IC50 stood at 1350 nM.
For the compound `O=S(=O)(c1ccccc1Cl)N1CCN(c2ccc(N3CCCCC3)nn2)CC1`, in data set [2], the Activity amounted to 12%. The IC50 in data set [1] (read-out: IC50) was 5580 nM; in data set [1] (read-out: pIC50 (converted)), 5370 nM.
